Test results as given in ChEMBL document CHEMBL1862790, “Optimisation of fenarimol series for the treatment of Chagas disease”.

Tests used:
[1] = DNDI: Cytotoxicity against L-6 rat myoblasts from skeletal muscle cells; settings: L6 rat skeletal muscle myoblast cells
Trypanosoma cruzi [2] = experiment: microbe, parasite or virus in culture; format: functional, organism-based, Tulahuen LacZ, Clone C4; settings: Trypanosoma cruzi, Tulahuen LacZ, Clone C4
Trypanosoma cruzi [3] = experiment: microbe, parasite or virus in culture; format: functional, Tulahuen LacZ, Clone C4; settings: Trypanosoma cruzi, Tulahuen LacZ, Clone C4

Row | Compound | IC50 (Trypanosoma cruzi [2]) | IC90 (Trypanosoma cruzi [3]) | IC50 [1] | IC50 ([1]; IC50)
1 | OC(c1ccc(Cl)cc1)(c1cccnc1)c1cccc(F)c1F (configuration not stated) | 107 nM | 256 nM | > 100000 nM | 
2 | OC(c1ccc(Cl)cc1)(c1ccc(Cl)cc1)c1cc(-c2ccccc2)on1 | > 10000 nM | > 10000 nM |  | 53600 nM
3 | N#CC(c1ccc(Cl)cc1)N1CCN(c2ccccc2)CC1 (configuration not stated) | > 1000 nM | > 1000 nM |  | > 100000 nM
4 | Nc1nccnc1C(O)(c1ccc(Cl)cc1)c1ccc(Cl)cc1 | > 10000 nM | > 10000 nM |  | 63400 nM
5 | OC(c1ccc(Cl)cc1)(c1cccnc1)c1c(F)cccc1Cl (configuration not stated) | 172 nM | 469 nM | 66900 nM | 
6 | Cc1ccc(C(O)(c2cccnc2)c2ccccc2Cl)cc1 (configuration not stated) | 70 nM | 160 nM | > 100000 nM | 
7 | OC(c1ccc(Cl)cc1)(c1cccnc1)c1cc(F)ccc1F (configuration not stated) | 44 nM | 108 nM | > 100000 nM | 
8 | OC(c1ccc(Cl)cc1)(c1cccnc1)c1c(F)cccc1F (configuration not stated) | 80 nM | 182 nM | > 100000 nM | 
9 | CON=C(C)c1cccnc1 | > 10000 nM | > 10000 nM | > 100000 nM | 
10 | OC(c1ccc(Cl)cc1)(c1ccc(Cl)cc1)c1ccco1 | > 10000 nM | > 10000 nM |  | 48000 nM
11 | CCCCC(O)(c1ccc(Cl)cc1)c1cncnc1 (configuration not stated) | 500 nM | 1890 nM |  | > 100000 nM
12 | OC(c1cccnc1)(c1ccccc1Cl)c1ccccc1C(F)(F)F (configuration not stated) | 297 nM | 724 nM | > 100000 nM | 
13 | OC(c1cccnc1)(c1ccsc1)c1ccccc1Cl (configuration not stated) | 509 nM | 875 nM |  | > 100000 nM
14 | OC(c1ccc(C(F)(F)F)cc1)(c1cccnc1)c1ccc(Cl)cc1F (configuration not stated) | 1.77 nM | 5 nM | > 100000 nM | 
15 | OC(c1ccc(Cl)cc1)(c1ccc(Cl)cc1)c1cccc(F)c1 | 560 nM | 840 nM |  | 53200 nM
16 | N#CC(c1ccc(Cl)cc1)c1ccccn1 (configuration not stated) | > 1000 nM | > 1000 nM |  | > 100000 nM
17 | OC(c1ccc(Cl)cc1)c1cccnc1 (configuration not stated) | 4750 nM | > 10000 nM |  | > 100000 nM
18 | Cc1noc(C)c1C(O)(c1ccc(Cl)cc1)c1ccc(C(F)(F)F)cc1 (configuration not stated) | > 1000 nM | > 1000 nM |  | 57900 nM
19 | OC1CCN(C(c2ccc(Cl)cc2)c2cccnc2)CC1 (configuration not stated) | 800 nM | > 1000 nM |  | > 100000 nM
20 | Clc1ccc(C(NCCN2CCOCC2)(c2cccnc2)c2ccccc2Cl)cc1 (configuration not stated) | 654 nM | 6230 nM |  | 56500 nM
21 | CON=C(Cc1ccc(Cl)cc1Cl)c1cccnc1 | 2140 nM | 4870 nM |  | 91300 nM

More lines, in order of falling IC50 (Trypanosoma cruzi [2]), values ahead:

Row | IC50 (Trypanosoma cruzi [2]) | IC90 (Trypanosoma cruzi [3]) | Compound | IC50 [1] | IC50 ([1]; IC50)
22 | 450 nM | 700 nM | CCCCC(NCC1CCCCC1)c1cccnc1 (configuration not stated) |  | > 100000 nM
23 | 378 nM | 820 nM | O=C1CCCN1CCCNC(c1ccc(Cl)cc1)c1cccnc1 (configuration not stated) |  | > 100000 nM
24 | 290 nM | 570 nM | Clc1ccc(C(c2cccnc2)n2cccn2)cc1 (configuration not stated) |  | > 100000 nM
25 | 179 nM | 630 nM | OC(c1cccnc1)(c1cnc(Cl)nc1)c1ccc(Cl)cc1F (configuration not stated) |  | > 100000 nM
26 | 154 nM | 368 nM | OC(CC1CCCCC1)(c1ccc(Cl)cc1)c1cncnc1 (configuration not stated) |  | 64700 nM
27 | 139 nM | 337 nM | CC(C)CC(O)(c1ccc(Cl)cc1)c1cnccn1 (configuration not stated) |  | > 100000 nM
28 | 124 nM | 296 nM | CCCCOC(c1ccc(Cl)cc1)c1cccnc1 (configuration not stated) |  | 62600 nM
29 | 110 nM | 216 nM | CS(=O)(=O)N1CCN(C(c2ccc(Cl)cc2)c2cccnc2)CC1 (configuration not stated) |  | > 100000 nM
30 | 110 nM | 510 nM | N#Cc1cccc(C(O)(c2ccc(Cl)cc2)c2cccnc2)c1 (configuration not stated) |  | > 100000 nM
31 | 78 nM | 899 nM | COc1ccc(CNC(c2ccc(Cl)cc2)c2cccnc2)cc1 (configuration not stated) |  | > 100000 nM
32 | 60 nM | 230 nM | CC(C)Oc1ncc(C(O)(c2ccc(Cl)cc2)c2cccnc2)cn1 (configuration not stated) |  | > 100000 nM
33 | 55 nM | 180 nM | CC(C)CC(=O)N1CCN(C(c2ccc(Cl)cc2)c2cccnc2)CC1 (configuration not stated) |  | > 100000 nM
34 | 32 nM | 80 nM | Clc1ccc(C(NCC2CCCCC2)c2cccnc2)cc1 (configuration not stated) |  | 59700 nM
35 | 29 nM | 103 nM | CCCCC(O)(c1ccc(Cl)cc1)c1cccnc1 (configuration not stated) |  | 60900 nM
36 | 28 nM | 72 nM | OC(c1ccc(Cl)cc1)(c1cccnc1)c1sccc1Cl (configuration not stated) |  | 70100 nM
37 | 24 nM | 67 nM | Cc1ccc(C(O)(c2ccc(Cl)cc2)c2cccnc2)s1 (configuration not stated) |  | > 100000 nM
38 | 20 nM | 90 nM | Cc1ccsc1C(O)(c1ccc(Cl)cc1)c1cccnc1 (configuration not stated) |  | 74200 nM
39 | 17 nM | 45 nM | Clc1ccc(C(c2cccnc2)c2cccs2)cc1 (configuration not stated) |  | > 100000 nM
